According to patent US20230055961A1, “PENTAFLUOROBENZENESULFONAMIDE DERIVATIVES AND USES THEREOF” (Dunad Therapeutics Ltd., priority 2019, published 2023):
Like-named read-outs stand apart in the source and are kept apart here.

How the values were obtained:
BTK = BTK (Homo sapiens, UniProt Q06187); assay: In vitro BTK inhibition, biochemical IC50 (no preincubation); conditions: Table 7
Description: IC50 Values (nM) for the Inhibition of BTK Activity
In vitro BTK and JAK3 inhibition studies are shown in Table 7 and Table 8 (no preincubation).

RL cells = assay: IC50 of Ibrutinib analogs against human cancer cells, RL cells (Table 14); assay type: cell-based; conditions: for IC50: Homo sapiens, RL, read-out: RL (IC50)
Description: 1×10^4 cells (NHF cells)/well are plated in 96-well assay plates in culture medium. […] After 24 hrs, test compounds and vehicle controls are added to appropriate wells so the final volume is 100p in each well. The cells are cultured for the desired test exposure period (72 hrs) at 37° C. and 5% CO2. The assay plates are removed from 37° C. incubator and 20 μl/well of CellTiter-Blue® Reagent is added. The plates are incubated using standard cell culture conditions for 1-4 hours and the plates are shaken for 10 seconds and record fluorescence at 560/590 nm. […] Therapeutic index=(IC50 human fibroblasts/IC50 […] )

JAK3 = target: T1, JAK3 (Homo sapiens, UniProt P52333); assay: In vitro kinase inhibition studies (Table 13), JAK3; assay type: biochemical
T1 sequence (P52333 1-1124): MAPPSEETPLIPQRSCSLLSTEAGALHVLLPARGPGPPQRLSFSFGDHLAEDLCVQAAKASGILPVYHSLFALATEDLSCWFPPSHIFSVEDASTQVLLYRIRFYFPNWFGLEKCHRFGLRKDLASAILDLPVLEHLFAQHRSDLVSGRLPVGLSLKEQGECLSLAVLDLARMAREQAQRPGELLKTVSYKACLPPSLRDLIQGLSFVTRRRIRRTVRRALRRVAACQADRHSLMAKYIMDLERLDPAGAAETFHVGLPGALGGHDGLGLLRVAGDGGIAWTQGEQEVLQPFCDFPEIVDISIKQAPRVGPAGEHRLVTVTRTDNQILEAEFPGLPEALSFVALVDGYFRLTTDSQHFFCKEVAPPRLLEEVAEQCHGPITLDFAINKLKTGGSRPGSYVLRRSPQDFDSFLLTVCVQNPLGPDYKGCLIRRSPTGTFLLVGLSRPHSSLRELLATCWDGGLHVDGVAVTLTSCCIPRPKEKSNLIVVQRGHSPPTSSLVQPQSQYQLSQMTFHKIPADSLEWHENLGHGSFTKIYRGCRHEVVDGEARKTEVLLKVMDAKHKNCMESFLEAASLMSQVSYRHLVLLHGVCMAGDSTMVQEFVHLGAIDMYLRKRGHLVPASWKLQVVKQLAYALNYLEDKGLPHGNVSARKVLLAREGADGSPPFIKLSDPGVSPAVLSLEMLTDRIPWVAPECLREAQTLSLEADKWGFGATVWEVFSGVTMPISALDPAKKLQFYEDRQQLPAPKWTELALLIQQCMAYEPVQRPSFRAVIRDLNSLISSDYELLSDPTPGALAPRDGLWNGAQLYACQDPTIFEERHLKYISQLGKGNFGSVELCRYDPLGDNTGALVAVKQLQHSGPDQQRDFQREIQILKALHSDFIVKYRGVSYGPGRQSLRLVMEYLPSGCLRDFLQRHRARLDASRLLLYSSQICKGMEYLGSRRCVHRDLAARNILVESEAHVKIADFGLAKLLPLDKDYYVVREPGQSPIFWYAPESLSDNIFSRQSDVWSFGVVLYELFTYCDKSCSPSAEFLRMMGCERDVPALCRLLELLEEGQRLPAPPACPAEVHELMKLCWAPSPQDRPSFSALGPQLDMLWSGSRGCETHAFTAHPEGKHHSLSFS

CSK = CSK (Homo sapiens, UniProt P41240); assay: In vitro kinase inhibition studies (Table 13), CSK; assay type: biochemical
EGFR = EGFR (Homo sapiens, UniProt P00533); assay: In vitro kinase inhibition studies (Table 13), EGFR; assay type: biochemical
ERBB2 = ERBB2 (Homo sapiens, UniProt P04626); assay: In vitro kinase inhibition studies (Table 13), ERBB2; assay type: biochemical
FGFR = assay: In vitro kinase inhibition studies (Table 13), FGFR; assay type: biochemical

EGFR, sequence (P00533 25-1210, species assumed): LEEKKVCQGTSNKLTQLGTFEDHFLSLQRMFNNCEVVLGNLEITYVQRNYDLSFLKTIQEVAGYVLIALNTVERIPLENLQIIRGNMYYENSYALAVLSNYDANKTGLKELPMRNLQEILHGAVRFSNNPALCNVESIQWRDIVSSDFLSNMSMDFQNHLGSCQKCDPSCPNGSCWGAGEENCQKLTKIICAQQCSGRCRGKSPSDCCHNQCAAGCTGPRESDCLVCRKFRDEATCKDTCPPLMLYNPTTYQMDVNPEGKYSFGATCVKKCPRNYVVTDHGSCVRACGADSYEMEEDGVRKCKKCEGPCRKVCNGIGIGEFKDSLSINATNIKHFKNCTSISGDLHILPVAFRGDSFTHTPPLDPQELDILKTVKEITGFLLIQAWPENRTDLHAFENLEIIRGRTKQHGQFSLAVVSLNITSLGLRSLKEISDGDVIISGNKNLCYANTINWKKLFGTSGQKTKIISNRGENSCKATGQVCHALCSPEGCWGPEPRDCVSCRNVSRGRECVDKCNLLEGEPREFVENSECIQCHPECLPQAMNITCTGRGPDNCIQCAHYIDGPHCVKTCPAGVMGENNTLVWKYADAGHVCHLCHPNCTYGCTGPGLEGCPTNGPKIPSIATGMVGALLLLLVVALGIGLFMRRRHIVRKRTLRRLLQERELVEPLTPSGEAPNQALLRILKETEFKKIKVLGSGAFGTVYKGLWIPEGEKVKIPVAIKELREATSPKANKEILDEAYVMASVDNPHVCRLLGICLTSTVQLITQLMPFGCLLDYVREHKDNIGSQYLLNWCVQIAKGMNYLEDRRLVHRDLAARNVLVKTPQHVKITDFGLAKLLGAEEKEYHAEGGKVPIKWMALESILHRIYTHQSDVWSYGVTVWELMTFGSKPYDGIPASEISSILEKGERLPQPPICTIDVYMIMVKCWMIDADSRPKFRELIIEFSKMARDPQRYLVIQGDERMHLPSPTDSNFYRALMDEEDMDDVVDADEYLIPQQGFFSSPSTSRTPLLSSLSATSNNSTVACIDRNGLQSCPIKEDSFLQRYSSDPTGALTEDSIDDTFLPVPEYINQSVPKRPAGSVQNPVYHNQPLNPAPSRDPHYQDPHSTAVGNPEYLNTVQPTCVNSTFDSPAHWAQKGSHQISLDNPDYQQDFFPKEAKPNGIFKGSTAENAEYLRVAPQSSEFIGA
CSK, sequence (P41240 whole entry, species assumed): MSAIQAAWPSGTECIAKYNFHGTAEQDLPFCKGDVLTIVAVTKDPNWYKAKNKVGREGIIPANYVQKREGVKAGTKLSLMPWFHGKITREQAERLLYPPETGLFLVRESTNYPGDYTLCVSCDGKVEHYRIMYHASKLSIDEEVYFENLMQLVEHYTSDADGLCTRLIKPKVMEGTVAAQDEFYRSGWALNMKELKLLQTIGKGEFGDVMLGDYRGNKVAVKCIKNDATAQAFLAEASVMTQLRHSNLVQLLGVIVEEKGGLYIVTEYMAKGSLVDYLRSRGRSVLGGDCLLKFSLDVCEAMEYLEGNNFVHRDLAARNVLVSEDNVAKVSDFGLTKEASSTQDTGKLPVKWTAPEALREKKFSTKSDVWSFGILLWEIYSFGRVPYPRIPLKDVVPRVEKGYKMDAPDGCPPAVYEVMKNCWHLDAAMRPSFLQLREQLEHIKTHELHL
ERBB2, sequence (P04626 23-1255, species assumed): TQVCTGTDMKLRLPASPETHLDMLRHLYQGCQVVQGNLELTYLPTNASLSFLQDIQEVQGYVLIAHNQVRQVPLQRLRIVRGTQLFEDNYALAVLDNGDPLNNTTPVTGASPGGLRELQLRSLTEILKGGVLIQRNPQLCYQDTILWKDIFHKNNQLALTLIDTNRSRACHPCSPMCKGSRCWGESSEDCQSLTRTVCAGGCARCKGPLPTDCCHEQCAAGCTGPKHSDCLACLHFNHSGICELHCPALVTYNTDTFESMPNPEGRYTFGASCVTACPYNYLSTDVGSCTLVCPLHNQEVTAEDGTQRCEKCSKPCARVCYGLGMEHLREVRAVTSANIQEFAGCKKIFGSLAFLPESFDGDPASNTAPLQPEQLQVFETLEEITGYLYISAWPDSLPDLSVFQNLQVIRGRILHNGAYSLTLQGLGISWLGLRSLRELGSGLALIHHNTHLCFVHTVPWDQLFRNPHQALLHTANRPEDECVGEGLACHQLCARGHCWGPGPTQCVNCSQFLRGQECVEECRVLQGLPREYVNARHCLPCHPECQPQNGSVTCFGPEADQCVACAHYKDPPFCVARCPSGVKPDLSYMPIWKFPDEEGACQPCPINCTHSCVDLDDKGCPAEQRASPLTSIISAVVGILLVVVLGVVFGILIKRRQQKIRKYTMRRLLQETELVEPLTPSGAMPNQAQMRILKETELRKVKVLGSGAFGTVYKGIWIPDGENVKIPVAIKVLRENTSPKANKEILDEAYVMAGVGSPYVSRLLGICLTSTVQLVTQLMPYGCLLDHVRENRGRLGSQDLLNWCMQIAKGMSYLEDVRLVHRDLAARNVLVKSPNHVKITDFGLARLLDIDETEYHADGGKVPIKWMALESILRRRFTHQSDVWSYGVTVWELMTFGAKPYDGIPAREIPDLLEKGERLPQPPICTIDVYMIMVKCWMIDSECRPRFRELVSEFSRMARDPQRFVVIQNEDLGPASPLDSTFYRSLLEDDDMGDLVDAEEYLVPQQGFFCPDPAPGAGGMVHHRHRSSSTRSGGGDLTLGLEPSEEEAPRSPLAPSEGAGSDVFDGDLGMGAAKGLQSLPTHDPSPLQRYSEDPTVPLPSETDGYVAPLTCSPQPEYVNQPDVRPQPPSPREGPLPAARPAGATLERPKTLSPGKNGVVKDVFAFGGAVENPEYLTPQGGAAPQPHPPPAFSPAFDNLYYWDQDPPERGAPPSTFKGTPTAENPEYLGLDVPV
BTK, sequence (Q06187 whole entry, species assumed): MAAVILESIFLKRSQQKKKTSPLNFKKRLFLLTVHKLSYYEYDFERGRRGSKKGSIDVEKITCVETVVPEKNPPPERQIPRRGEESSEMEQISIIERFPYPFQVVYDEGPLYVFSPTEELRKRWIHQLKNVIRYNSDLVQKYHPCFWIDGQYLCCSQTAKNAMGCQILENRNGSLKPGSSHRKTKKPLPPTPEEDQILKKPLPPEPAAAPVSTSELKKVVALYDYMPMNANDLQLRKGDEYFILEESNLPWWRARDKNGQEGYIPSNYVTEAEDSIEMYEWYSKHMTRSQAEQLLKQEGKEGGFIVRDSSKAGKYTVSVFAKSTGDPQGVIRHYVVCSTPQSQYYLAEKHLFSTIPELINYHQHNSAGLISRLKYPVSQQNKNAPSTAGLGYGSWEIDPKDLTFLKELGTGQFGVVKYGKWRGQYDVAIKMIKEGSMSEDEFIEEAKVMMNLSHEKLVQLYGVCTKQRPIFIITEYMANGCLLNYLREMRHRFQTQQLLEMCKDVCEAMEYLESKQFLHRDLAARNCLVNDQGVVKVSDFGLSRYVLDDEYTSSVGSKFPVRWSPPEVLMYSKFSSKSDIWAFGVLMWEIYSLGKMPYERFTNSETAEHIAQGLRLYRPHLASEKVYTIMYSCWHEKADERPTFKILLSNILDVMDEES

`Nc1ncnc2c1c(-c1ccc(Oc3ccccc3)cc1)nn2[C@@H]1CCCN(S(=O)(=O)c2c(F)c(F)c(F)c(F)c2F)C1` [Compound 5-1, (R)-1-(1-((perfluorophenyl)sulfonyl)piperidin-3-yl)-3-(4-phenoxyphenyl)-1H-pyrazolo[3,4-d]pyrimidin-4-amine] was tested, and the IC50 (BTK) was 10 to 100 nM, the IC50 (RL cells; TABLE 9) was 1610 nM and the IC50 (RL cells; Table 14, RL human non-Hodgkin's lymphoma B cell line) was 2740 nM. The “cell-based efficacy compared with Ibrutinib” value (RL cells; RL cells) was “better cell-based efficacy”, the IC50 (JAK3) was 100 to 1000 nM and the IC50 (CSK) was 100 to 1000 nM. The IC50 (EGFR) was 100 to 1000 nM, the IC50 (ERBB2) was 100 to 1000 nM and the IC50 (FGFR) was 100 to 1000 nM.
